Data taken from PubChem BioAssay (NCI).
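All cell lines were grown in 96-well plates and treated with compound for 48 hours. Abbreviation: GI50, concentration required for 50% inhibition of growth. TGI: concentration producing complete growth inhibition.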

Experiments:
Assay in all cases: NCI anticancer screen, dose series, 48 h
EKVX NSCLC = tested on: EKVX NSCLC
HOP-62 NSCLC = tested on: HOP-62 NSCLC
SF-539 CNS = tested on: SF-539 CNS
786-0 renal = tested on: 786-0 renal
ACHN renal = tested on: ACHN renal
COLO 205 colon = tested on: COLO 205 colon
LOX IMVI melanoma = tested on: LOX IMVI melanoma
RPMI-8226 leukemia = tested on: RPMI-8226 leukemia
M14 melanoma = tested on: M14 melanoma
PC-3 prostate = tested on: PC-3 prostate

SMILES | GI50 (EKVX NSCLC) [µM] | TGI (EKVX NSCLC) [µM] | GI50 (HOP-62 NSCLC) [µM] | TGI (HOP-62 NSCLC) [µM] | GI50 (SF-539 CNS) [µM] | TGI (SF-539 CNS) [µM] | GI50 (786-0 renal) [µM] | TGI (786-0 renal) [µM] | GI50 (ACHN renal) [µM] | TGI (ACHN renal) [µM] | GI50 (COLO 205 colon) [µM] | TGI (COLO 205 colon) [µM] | GI50 (LOX IMVI melanoma) [µM] | TGI (LOX IMVI melanoma) [µM] | GI50 (RPMI-8226 leukemia) [µM] | TGI (RPMI-8226 leukemia) [µM] | GI50 (M14 melanoma) [µM] | TGI (M14 melanoma) [µM] | GI50 (PC-3 prostate) [µM] | TGI (PC-3 prostate) [µM]
C=C1C(=O)O[C@H]2[C@H]1CC/C(COC(=O)/C=C\C(=O)NCc1ccc(Cn3c(=O)sn(CCCC)c3=O)cc1)=C\CC[C@@]1(C)O[C@@H]21 | 1.48 | 2.85 | 1.63 | 3.46 | 1.18 | 2.42 | 1.2 | 2.56 | 0.299 | 0.994 | 0.581 | 2.37 | 0.179 | 0.379 | 0.274 | 0.949 | 0.678 | 2.06 | 0.868 | 2.34
CCN1C(=O)N(CC)C2C1NN=c1s/c(=C3\C(=O)N(CC(C)(C)C)c4ccccc43)c(=O)n12 (stereo not drawn) | 5.07 | 54.2 | 4.93 | 22.8 | 2.95 | 11.1 | 5.65 | 27.8 | 4.04 | 18.1 | 3.31 | 13.5 | 3.38 | 15.4 |  |  | 3.72 | 20.7 | 4.31 | 31.5
COc1cc2c(c(OC)c1OC)-c1ncc3cc4c(cc3c1C2)OCO4 | 15.6 | 51.7 | 21.7 | 46.6 |  |  | 30.2 | > 100 | 28.8 | 73.6 | 29.7 | > 100 | 14.3 | 34.1 | 17.8 | > 100 | 45.5 | > 100 | 34.7 | > 100
CSc1ccc2c(c1)C(=O)c1c-2n(CCCBr)c(=O)c2cc([N+](=O)[O-])ccc12 | > 100 | > 100 | 1.05 | 19.6 | 4.59 | > 100 | 2.45 | 10.5 | 1.61 | 8.4 | 17.8 | > 100 | 2.11 | 41.5 | 4.11 | > 100 | 3.38 | > 100 | 25.8 | > 100
O=C1NC(=O)/C(=C\c2ccccc2)C2=C1CCCC2 | 14.3 | 29.5 | 7.31 | 25.8 | 11.6 | 24.1 | 7.6 | 20.2 | 5.78 | 18.6 | 3.86 | 14.6 | 1.85 | 4.06 | 1.91 |  | 3.72 | 12.8 | 6.36 | 35.5
O=C(O)CC(NC(=O)CP(=O)(O)O)C(=O)O (stereo not drawn) |  | 7860 |  | 3760 | 89.5 | > 10000 | 71 | > 6000 |  | > 10000 |  | > 10000 |  | 824 |  | > 10000 |  | > 10000 |  | > 10000
NC(=O)c1cc(S(=O)(=O)Nc2nnc(-c3ccccc3)c(-c3ccccc3)n2)c(SCc2ccccc2)cc1Cl | > 100 | > 100 | > 100 | > 100 | > 44.3 | > 63.9 | > 100 | > 100 | > 100 | > 100 | > 100 | > 100 | > 82.3 | > 100 | > 44.1 | > 65.1 | > 100 | > 100 | > 62.2 | > 100
N#Cc1c(N/N=C/c2ccc(Cl)cc2Cl)nc(N)nc1N1CCCC1 | > 100 | > 100 | 15.2 | 32.4 | 22.8 | > 100 | 19.5 | 47.6 | 24.5 | 90.2 | 88.1 | > 100 | 31.8 | > 100 | 30.9 | > 100 | 44.2 | > 100 | 12.2 | 38.4
COc1ccc(-c2coc3c4c(ccc3c2=O)OCO4)cc1OC |  | > 100 |  | > 100 |  | > 100 |  | > 100 |  | > 100 |  | > 100 |  | > 100 |  | > 100 |  | > 100 |  | > 100
Cc1nc2sc3c(c2c(=O)[nH]1)CCCC3 |  | > 100 |  | > 100 |  | > 100 |  | > 100 |  | > 100 |  | > 100 |  | > 100 |  | > 100 |  | > 100 |  | > 100
CCOc1ccncc1[N+](=O)[O-] |  | > 100 |  | > 100 |  | > 100 |  | > 100 |  | > 100 |  |  |  | > 100 |  | > 100 |  | > 100 |  | > 100
O=CN1CCN(CC(O)CN2CCCCC2)CC1 (stereo not drawn) |  | > 100 |  | > 100 |  |  |  | > 100 |  | > 100 |  | > 100 |  | > 100 |  | > 100 |  | > 100 |  | > 100
CCn1c(=O)c2c(=O)c3c4c(oc3oc2c2ccccc21)C(=O)c1ccccc1C4=O | 1.47 | > 100 | > 21.6 | > 100 | 3.32 | > 100 | > 22.7 | > 100 |  |  | > 100 | > 100 |  | > 100 | 2.91 | > 100 | > 100 | > 100 | 8.71 | > 100
CCCOc1ccc2sc(NC(=O)OC)nc2c1 |  |  | 4.9 | > 100 | 2.91 | > 100 | > 28.2 | > 100 | > 25.1 | > 100 | 0.838 | 13.5 | 5.66 | > 100 | 2.65 | > 100 | 1.26 | > 100 | 3.48 | > 100
Cc1cc(C)c(/C=C2\C(=O)Nc3ccc(NC(=O)CCCCCCC(=O)NO)cc32)[nH]1 |  |  | 0.485 | 9.83 | 0.521 | > 100 | 15.1 | > 100 | 6.18 | > 100 | 0.479 | 2.32 | 0.493 | 12.9 | > 100 | > 100 | 0.75 | > 100 | 0.684 | > 100
